Laboratory results: patent US20240109924A1, “IP4-4,6 SUBSTITUTED DERIVATIVE COMPOUNDS” (SANIFIT THERAPEUTICS, S.A., priority 2021, published 2024)
Where a name gives a salt, the structure may show the parent alone.

test: In vitro inhibition of calcium phosphate crystallization in human plasma (spectrophotometric assay); type: biochemical; conditions: 0-100 μM, 1.5 mM phosphate, 12.5 mM calcium, pH 7.4, absorbance 550 nm, slope 6-24 min, read-out: Relative Potency
Procedure: The in vitro efficacy of the IP4-4,6 substituted derivatives (e.g., Compounds 1 to 53) of the invention on the inhibition of calcium phosphate crystallization in human plasma samples was evaluated according to a spectrophotometric assay previously described in the art (Ferrer M, et al., Sci Rep 2017; 7:6858, doi:10.1038/s41598-017-07203-x).
A 96-well plate was employed. Plasma was spiked (1 volume of the IP4-4,6 substituted derivatives of the invention per 19 volumes of plasma) with increasing concentrations of the derivatives in the range of 0-100 μM. Plasma was then centrifuged at 10,000 g at rt and subsequently mixed with a mixture of 5 mM hydrogen phosphate and 41.67 mM calcium to attain final concentrations of 1.5 mM phosphate and 12.5 mM calcium, respectively. All reagent solutions were filtered, and pH adjusted to 7.4.
Crystallization of calcium phosphate was monitored spectrophotometrically for 30 min at rt by measuring the increments in absorbance at 550 nm using the Biotek Powerwave XS Microplate spectrophotometer (BioTek Instruments, Inc., Winooski, VT, US). The plate was incubated at rt in an orbital shaker and absorbance measured every 3 min.
Plasma crystallization was assessed based on slope measurement in the linear range between 6 and 24 min from plots of increase in absorbance versus logarithm of time. The efficacy of different myo-inositol phosphates derivatives in preventing in vitro formation of calcium phosphate crystals was assessed in human plasma samples using the slopes obtained between 6- and 24-min. Inhibition of crystallization was measured by comparing the slopes of the control sample (blank plasma) with those of samples containing the inhibitor as shown below: […]

SMILES | EC50 [µM]
NCCCOC1C(OP(=O)(O)O)C(OCCCN)C(OP(=O)(O)O)C(OP(=O)(O)O)C1OP(=O)(O)O (centres unmarked) [Compound 13, 4,6-O-bis(3-aminopropyl)-myo-inositol-1,2,3,5-tetrakis(phosphate) octasodium salt] | 5 to 10
O=C(O)CCCCCCCCCCOC1C(OP(=O)(O)O)C(OCCCCCCCCCCC(=O)O)C(OP(=O)(O)O)C(OP(=O)(O)O)C1OP(=O)(O)O (centres unmarked) [Compound 19, 4,6-O-bis(10-carboxydecyl)-myo-inositol-1,2,3,5-tetrakis(phosphate) decasodium salt] | > 10
COCCCCCCCCC#CCCCCCCCCCOC1C(OP(=O)(O)O)C(OCCCCCCCCCC#CCCCCCCCCOC)C(OP(=O)(O)O)C(OP(=O)(O)O)C1OP(=O)(O)O (centres unmarked) [Compound 20, 4,6-O-bis(19-methoxynonadec-10-yn-1-yl)-myo-inositol-1,2,3,5-tetrakis(phosphate) octasodium salt] | ≤ 5
CCCCCCCCCCCCCCO[C@@H]1[C@@H](OP(=O)(O)O)[C@H](OCCCCCCCCCCCCCC)[C@@H](OP(=O)(O)O)[C@@H](OP(=O)(O)O)[C@H]1OP(=O)(O)O [Compound 3, 4,6-O-di(tetradecyl)-myo-inositol-1,2,3,5-tetrakis(phosphate) octasodium salt] | ≤ 5
COCCCCCOC1C(OP(O)(O)=S)C(OCCCCCOC)C(OP(O)(O)=S)C(OP(O)(O)=S)C1OP(O)(O)=S (centres unmarked) [Compound 51, 4,6-O-bis(5-Methoxypentyl)-myo-inositol-1,2,3,5-tetrakis(thiophosphate) octasodium salt] | > 10
CC(C)CCCOC1C(OP(=O)(O)O)C(OCCCC(C)C)C(OP(=O)(O)O)C(OP(=O)(O)O)C1OP(=O)(O)O (centres unmarked) [Compound 21, 4,6-O-bis(4-methylpentyl)-myo-inositol-1,2,3,5-tetrakis(phosphate) octasodium salt] | > 10
O=P(O)(O)OC1C(OCCCCCCCCCCO)C(OP(=O)(O)O)C(OP(=O)(O)O)C(OP(=O)(O)O)C1OCCCCCCCCCCO (centres unmarked) [Compound 7, 4,6-O-bis(10-hydroxydecyl)-myo-inositol-1,2,3,5-tetrakis(phosphate) octasodium salt] | > 10
CC(=O)NCCCCCO[C@@H]1[C@@H](OP(=O)(O)O)[C@H](OCCCCCNC(C)=O)[C@@H](OP(=O)(O)O)[C@@H](OP(=O)(O)O)[C@H]1OP(=O)(O)O [Compound 27, 4,6-O-bis(5-acetamidopentyl)-myo-inositol-1,2,3,5-tetrakis(phosphate) octasodium salt] | ≤ 5
O=C(NCCCOC1C(OP(=O)(O)O)C(OCCCNC(=O)NC2CCCC2)C(OP(=O)(O)O)C(OP(=O)(O)O)C1OP(=O)(O)O)NC1CCCC1 (centres unmarked) [Compound 47, 4,6-O-bis(3-(3-cyclopentylureido)propyl)-myo-inositol-1,2,3,5-tetrakis(phosphate) octasodium salt] | ≤ 5
O=C(O)CCCOC1C(OP(=O)(O)O)C(OCCCC(=O)O)C(OP(=O)(O)O)C(OP(=O)(O)O)C1OP(=O)(O)O (centres unmarked) [Compound 52, 4,6-O-bis(3-carboxypropyl)-myo-inositol-1,2,3,5-tetrakis(phosphate) decasodium salt] | ≤ 5
C#CCOC1C(OP(=O)(O)O)C(OCC#C)C(OP(=O)(O)O)C(OP(=O)(O)O)C1OP(=O)(O)O (centres unmarked) [Compound 53, 4,6-O-Dipropargyl-myo-inositol-1,2,3,5-tetrakis(phosphate) octasodium salt] | ≤ 5
O=P(O)(O)OC1C(OCCC2CC2)C(OP(=O)(O)O)C(OP(=O)(O)O)C(OP(=O)(O)O)C1OCCC1CC1 (centres unmarked) [Compound 28, 4,6-O-bis(2-cyclopropylethyl)-myo-inositol-1,2,3,5-tetrakis(phosphate) octasodium salt] | ≤ 5

Further lines, results first:

EC50 [µM] | SMILES
> 10 | O=P(O)(O)OC1C(OCCCc2cccc(C(F)(F)F)c2)C(OP(=O)(O)O)C(OP(=O)(O)O)C(OP(=O)(O)O)C1OCCCc1cccc(C(F)(F)F)c1 (centres unmarked) [Compound 44, 4,6-O-bis(3-(3-(trifluoromethyl)phenyl)propyl)-myo-inositol-1,2,3,5-tetrakis(phosphate) octasodium salt]
≤ 5 | O=P(O)(O)O[C@@H]1[C@@H](OCCC2CCCC2)[C@H](OP(=O)(O)O)[C@H](OP(=O)(O)O)[C@H](OP(=O)(O)O)[C@H]1OCCC1CCCC1 [Compound 29, 4,6-O-bis(2-cyclopentylethyl)-myo-inositol-1,2,3,5-tetrakis(phosphate) octasodium salt]
> 10 | O=C(NCCCCCOC1C(OP(=O)(O)O)C(OCCCCCNC(=O)c2ccccc2)C(OP(=O)(O)O)C(OP(=O)(O)O)C1OP(=O)(O)O)c1ccccc1 (centres unmarked) [Compound 48, 4,6-O-bis(5-benzamidopentyl)-myo-inositol-1,2,3,5-tetrakis(phosphate) octasodium salt]
> 10 | O=P(O)(O)OC1C(OCCCCCC(F)(F)F)C(OP(=O)(O)O)C(OP(=O)(O)O)C(OP(=O)(O)O)C1OCCCCCC(F)(F)F (centres unmarked) [Compound 23, 4,6-O-bis(6,6,6-trifluorohexyl)-myo-inositol-1,2,3,5-tetrakis(phosphate) octasodium salt]
5 to 10 | COCc1cn(CCCOC2C(OP(=O)(O)O)C(OCCCn3cc(COC)nn3)C(OP(=O)(O)O)C(OP(=O)(O)O)C2OP(=O)(O)O)nn1 (centres unmarked) [Compound 36, 4,6-O-bis(3-(4-(methoxymethyl)-1H-1,2,3-triazol-1-yl)propyl)-myo-inositol-1,2,3,5-tetrakis(phosphate) octasodium salt]
